The target of this assay is T1, voltage-dependent T-type calcium channel subunit alpha-1G (Cav3.2) (Homo sapiens, UniProt O95180).
T1 construct: expressed in transfected cells; host or cells: HEK293
T1 sequence (O95180 whole entry): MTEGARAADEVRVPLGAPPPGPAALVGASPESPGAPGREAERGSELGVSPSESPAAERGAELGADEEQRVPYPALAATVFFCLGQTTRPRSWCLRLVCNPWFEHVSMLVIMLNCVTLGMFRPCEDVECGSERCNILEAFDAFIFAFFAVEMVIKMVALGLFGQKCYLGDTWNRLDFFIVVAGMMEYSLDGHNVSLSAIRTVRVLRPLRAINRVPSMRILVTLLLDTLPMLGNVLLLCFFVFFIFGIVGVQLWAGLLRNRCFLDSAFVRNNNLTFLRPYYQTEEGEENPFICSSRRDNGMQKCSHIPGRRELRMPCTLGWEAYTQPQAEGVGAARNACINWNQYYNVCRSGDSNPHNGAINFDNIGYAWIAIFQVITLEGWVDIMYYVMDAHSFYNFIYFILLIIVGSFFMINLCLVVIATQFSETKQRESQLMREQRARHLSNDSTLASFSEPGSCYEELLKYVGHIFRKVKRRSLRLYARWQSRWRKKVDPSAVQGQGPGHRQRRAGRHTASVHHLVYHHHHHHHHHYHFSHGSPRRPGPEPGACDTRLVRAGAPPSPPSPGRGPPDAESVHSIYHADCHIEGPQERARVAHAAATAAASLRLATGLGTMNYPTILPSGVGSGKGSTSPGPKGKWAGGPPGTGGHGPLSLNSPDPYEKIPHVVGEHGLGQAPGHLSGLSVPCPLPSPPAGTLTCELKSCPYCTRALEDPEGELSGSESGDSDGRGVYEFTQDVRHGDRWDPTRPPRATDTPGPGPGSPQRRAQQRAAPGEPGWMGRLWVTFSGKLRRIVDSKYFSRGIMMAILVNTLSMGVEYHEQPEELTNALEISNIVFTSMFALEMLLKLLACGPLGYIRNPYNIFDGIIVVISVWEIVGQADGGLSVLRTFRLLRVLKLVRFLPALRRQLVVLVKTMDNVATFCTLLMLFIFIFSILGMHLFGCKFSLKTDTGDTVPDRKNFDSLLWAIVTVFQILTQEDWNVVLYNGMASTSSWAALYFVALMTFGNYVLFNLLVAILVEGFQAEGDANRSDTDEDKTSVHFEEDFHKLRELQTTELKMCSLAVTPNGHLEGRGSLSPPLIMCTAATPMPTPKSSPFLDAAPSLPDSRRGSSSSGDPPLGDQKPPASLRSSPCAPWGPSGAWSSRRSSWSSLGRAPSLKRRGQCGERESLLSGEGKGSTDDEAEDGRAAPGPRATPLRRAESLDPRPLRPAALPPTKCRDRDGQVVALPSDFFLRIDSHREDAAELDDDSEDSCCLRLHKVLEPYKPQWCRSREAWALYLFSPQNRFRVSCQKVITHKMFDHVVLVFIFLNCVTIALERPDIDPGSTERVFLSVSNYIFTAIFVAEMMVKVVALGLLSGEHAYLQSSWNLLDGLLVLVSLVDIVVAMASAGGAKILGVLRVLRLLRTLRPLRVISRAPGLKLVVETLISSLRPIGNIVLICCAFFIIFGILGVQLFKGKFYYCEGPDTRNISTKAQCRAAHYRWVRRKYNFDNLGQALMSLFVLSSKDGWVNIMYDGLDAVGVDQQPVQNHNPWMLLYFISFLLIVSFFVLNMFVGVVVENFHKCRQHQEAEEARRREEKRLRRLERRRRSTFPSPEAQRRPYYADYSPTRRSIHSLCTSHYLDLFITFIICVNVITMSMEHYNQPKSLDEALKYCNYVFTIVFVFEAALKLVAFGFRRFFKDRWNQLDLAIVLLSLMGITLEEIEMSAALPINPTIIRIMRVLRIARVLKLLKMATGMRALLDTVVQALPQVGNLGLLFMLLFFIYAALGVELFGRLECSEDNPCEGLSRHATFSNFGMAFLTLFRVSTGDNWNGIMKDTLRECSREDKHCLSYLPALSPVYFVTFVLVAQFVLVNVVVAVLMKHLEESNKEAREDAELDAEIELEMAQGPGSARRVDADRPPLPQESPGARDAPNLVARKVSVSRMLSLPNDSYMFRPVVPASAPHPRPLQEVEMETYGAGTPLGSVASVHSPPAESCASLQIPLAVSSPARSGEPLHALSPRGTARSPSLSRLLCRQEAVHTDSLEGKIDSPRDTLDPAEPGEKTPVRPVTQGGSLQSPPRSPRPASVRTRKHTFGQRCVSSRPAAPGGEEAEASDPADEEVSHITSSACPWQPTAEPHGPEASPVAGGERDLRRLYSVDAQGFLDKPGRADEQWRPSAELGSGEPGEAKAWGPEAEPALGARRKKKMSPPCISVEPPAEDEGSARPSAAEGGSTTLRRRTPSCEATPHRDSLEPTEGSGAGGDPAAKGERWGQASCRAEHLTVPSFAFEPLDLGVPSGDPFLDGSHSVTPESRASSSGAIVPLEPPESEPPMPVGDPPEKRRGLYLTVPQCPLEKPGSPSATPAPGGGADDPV
The assay is described as follows: FLIPR calcium flux assay, HEK293 cells recombinantly expressing Cav3.2. Format: cell-based. To be noted: Cav3.2-channel, Fluo-4-AM, 3 min incubation, stimulation with 10 mM CaCl2. The gist of the method: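 Calcium influx was triggered by adding CaCl2 to 10 mM final, 3 min after compounds in tetraethylammonium-based buffer, pH 7.2, reached Fluo-4-AM-loaded recombinant HEK293 cells. The integrated kinetic fluorescence signal per concentration gave concentration-response curves by non-linear sigmoidal regression.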
(In general: Calcium flux is commonly read through the fluorescence of an indicator in the cells.)
By IC50 is commonly meant the point on the concentration scale where inhibition reaches its midpoint. For the compound `N#Cc1cc(Cn2ccc(NC(=O)Cc3cnc(N4CCCC4)c(F)c3)n2)ccc1F` [Example 340, N-[1-(3-Cyano-4-fluoro-benzyl)-1H-pyrazol-3-yl]-2-(5-fluoro-6-pyrrolidin-1-yl-pyridin-3-yl)-acetamide], the half-inhibitory concentration (IC50) came out at 8.5 nM.

As for `N#Cc1ccc(Cn2ccc(NC(=O)Cc3cnc(N4CCCC4)c(F)c3)n2)nc1` [Example 341, N-[1-(5-Cyano-pyridin-2-ylmethyl)-1H-pyrazol-3-yl]-2-(5-fluoro-6-pyrrolidin-1-yl-pyridin-3-yl)-acetamide], the IC50 stood at 64 nM.

For `N#Cc1cc(Cn2ccc(NC(=O)Cc3ccc(C(F)(F)F)cc3)n2)ccc1F` [Example 342, N-[1-(3-Cyano-4-fluoro-benzyl)-1H-pyrazol-3-yl]-2-(4-trifluoromethyl-phenyl)-acetamide], the half-inhibitory concentration (IC50) turned out to be 40 nM.

Consider `Cc1cc(CC(=O)Nc2ccn(Cc3ccc(F)c(C#N)c3)n2)ccc1OCC(F)(F)F` [Example 343, N-[1-(3-Cyano-4-fluoro-benzyl)-1H-pyrazol-3-yl]-2-[3-methyl-4-(2,2,2-trifluoro-ethoxy)-phenyl]-acetamide], for which the half-maximal inhibitory concentration (IC50) worked out at 4.5 nM.

As to `Cn1ncc2cc(CC(=O)Nc3ccn(Cc4cc(F)c(C#N)c(F)c4)n3)ccc21` [Example 344, N-[1-(4-Cyano-3,5-difluoro-benzyl)-1H-pyrazol-3-yl]-2-(1-methyl-1H-indazol-5-yl)-acetamide], the concentration for half-maximal inhibition (IC50) is 52 nM.

Take `Cn1ncc2ccc(CC(=O)Nc3ccn(Cc4cc(F)c(C#N)c(F)c4)n3)cc21` [Example 346, N-[1-(4-Cyano-3,5-difluoro-benzyl)-1H-pyrazol-3-yl]-2-(1-methyl-1H-indazol-6-yl)-acetamide]: the concentration for half-maximal inhibition (IC50) worked out at 159 nM.

For `N#Cc1c(F)cc(Cn2ccc(NC(=O)Cc3ccc(C4(F)COC4)cc3)n2)cc1F` [Example 347, N-[1-(4-Cyano-3,5-difluoro-benzyl)-1H-pyrazol-3-yl]-2-[4-(3-fluoro-oxetan-3-yl)-phenyl]-acetamide], the 50% inhibitory concentration (IC50) was 85 nM.

Regarding `Cc1nn(C)c2ccc(CC(=O)Nc3ccn(Cc4cc(F)c(C#N)c(F)c4)n3)cc12` [Example 348, N-[1-(4-Cyano-3,5-difluoro-benzyl)-1H-pyrazol-3-yl]-2-(1,3-dimethyl-1H-indazol-5-yl)-acetamide], the IC50 was determined as 29 nM.

As to `N#Cc1c(F)cc(Cn2ccc(NC(=O)Cc3ccc(N4CCC(F)(F)C4)nc3)n2)cc1F` [Example 349, N-[1-(4-Cyano-3,5-difluoro-benzyl)-1H-pyrazol-3-yl]-2-[6-(3,3-difluoro-pyrrolidin-1-yl)-pyridin-3-yl]-acetamide], the half-inhibitory concentration (IC50) is 23 nM.

Regarding `N#Cc1c(F)cc(Cn2ccc(NC(=O)Cc3ccc(C4(C(F)(F)F)CC4)cc3)n2)cc1F` [Example 350, N-[1-(4-Cyano-3,5-difluoro-benzyl)-1H-pyrazol-3-yl]-2-[4-(1-trifluoromethyl-cyclopropyl)-phenyl]-acetamide], the IC50 was determined as 69 nM.

Take `N#Cc1c(F)cc(Cn2ccc(NC(=O)Cc3ccc(N4CCCC4)nc3)n2)cc1F` [Example 351, N-[1-(4-Cyano-3,5-difluoro-benzyl)-1H-pyrazol-3-yl]-2-(6-pyrrolidin-1-yl-pyridin-3-yl)-acetamide]: the IC50 is 65 nM.

For `CC(C)(C)c1ccc(CC(=O)Nc2ccn(Cc3cc(F)c(C#N)c(F)c3)n2)cc1` [Example 352, 2-(4-tert-Butyl-phenyl)-N-[1-(4-cyano-3,5-difluoro-benzyl)-1H-pyrazol-3-yl]-acetamide], the IC50 is 22 nM.

For the compound `CC(C)c1ccc(CC(=O)Nc2ccn(Cc3cc(F)c(C#N)c(F)c3)n2)cc1` [Example 353, N-[1-(4-Cyano-3,5-difluoro-benzyl)-1H-pyrazol-3-yl]-2-(4-isopropyl-phenyl)-acetamide], the IC50 turned out to be 30 nM.

With `N#Cc1ccc(Cn2ccc(NC(=O)Cc3ccc(C4(C#N)CC4)cc3)n2)nc1` [Example 354, 2-[4-(1-Cyano-cyclopropyl)-phenyl]-N-[1-(5-cyano-pyridin-2-ylmethyl)-1H-pyrazol-3-yl]-acetamide], the IC50 turned out to be 248 nM.

With `N#Cc1cc(Cn2ccc(NC(=O)Cc3ccc(C4(C#N)CC4)cc3)n2)ccc1F` [Example 355, 2-[4-(1-Cyano-cyclopropyl)-phenyl]-N-[1-(3-cyano-4-fluoro-benzyl)-1H-pyrazol-3-yl]-acetamide], the half-maximal inhibitory concentration (IC50) is 26 nM.

As for `N#Cc1ccc(Cn2ccc(NC(=O)Cc3ccc(C4(O)CC4)cc3)n2)nc1` [Example 356, N-[1-(5-Cyano-pyridin-2-ylmethyl)-1H-pyrazol-3-yl]-2-[4-(1-hydroxy-cyclopropyl)-phenyl]-acetamide], the IC50 is 327 nM.

Turning to `CCn1ncc2cc(CC(=O)Nc3ccn(Cc4cc(F)c(C#N)c(F)c4)n3)ccc21` [Example 357, N-[1-(4-Cyano-3,5-difluoro-benzyl)-1H-pyrazol-3-yl]-2-(1-ethyl-1H-indazol-5-yl)-acetamide], the IC50 came to 34 nM.

Regarding `Cc1cn(C)c2ccc(CC(=O)Nc3ccn(Cc4cc(F)c(C#N)c(F)c4)n3)cc12` [Example 358, N-[1-(4-Cyano-3,5-difluoro-benzyl)-1H-pyrazol-3-yl]-2-(1,3-dimethyl-1H-indol-5-yl)-acetamide], the half-maximal inhibitory concentration (IC50) was determined as 20 nM.

Regarding `COC1(c2ccc(CC(=O)Nc3ccn(Cc4cc(F)c(C#N)c(F)c4)n3)cc2)COC1` [Example 359, N-[1-(4-Cyano-3,5-difluoro-benzyl)-1H-pyrazol-3-yl]-2-[4-(3-methoxy-oxetan-3-yl)-phenyl]-acetamide], the IC50 was 212 nM.

`N#Cc1c(F)cc(Cn2ccc(NC(=O)Cc3ccc(OCC4COC4)cc3)n2)cc1F` [Example 360, N-[1-(4-Cyano-3,5-difluoro-benzyl)-1H-pyrazol-3-yl]-2-[4-(oxetan-3-ylmethoxy)-phenyl]-acetamide]: the IC50 is 360 nM.

Regarding `N#Cc1c(F)cc(Cn2ccc(NC(=O)Cc3ccc(OCC4(F)COC4)cc3)n2)cc1F` [Example 361, N-[1-(4-Cyano-3,5-difluoro-benzyl)-1H-pyrazol-3-yl]-2-[4-(3-fluoro-oxetan-3-ylmethoxy)-phenyl]-acetamide], the IC50 is 80 nM.

`CC1(COc2ccc(CC(=O)Nc3ccn(Cc4cc(F)c(C#N)c(F)c4)n3)cc2)COC1` [Example 362, N-[1-(4-Cyano-3,5-difluoro-benzyl)-1H-pyrazol-3-yl]-2-[4-(3-methyl-oxetan-3-ylmethoxy)-phenyl]-acetamide]: the half-maximal inhibitory concentration (IC50) was 117 nM.

`N#Cc1c(F)cc(Cn2ccc(NC(=O)Cc3ccc(OCC4CC(F)(F)C4)cc3)n2)cc1F` [Example 363, N-[1-(4-Cyano-3,5-difluoro-benzyl)-1H-pyrazol-3-yl]-2-[4-(3,3-difluoro-cyclobutylmethoxy)-phenyl]-acetamide]: the IC50 came out at 51 nM.

For the compound `CC1(COc2ccc(CC(=O)Nc3ccn(Cc4cc(F)c(C#N)c(F)c4)n3)cc2)CC(F)(F)C1` [Example 364, N-[1-(4-Cyano-3,5-difluoro-benzyl)-1H-pyrazol-3-yl]-2-[4-(3,3-difluoro-1-methyl-cyclobutylmethoxy)-phenyl]-acetamide], the IC50 is 62 nM.

As to `N#Cc1nc(Cn2ccc(NC(=O)Cc3ccc(C4(C(F)(F)F)CC4)cc3)n2)ccc1F` [Example 365, N-[1-(6-Cyano-5-fluoro-pyridin-2-ylmethyl)-1H-pyrazol-3-yl]-2-[4-(1-trifluoromethyl-cyclopropyl)-phenyl]-acetamide], the IC50 came to 18 nM.

`Cc1ccc(Cn2ccc(NC(=O)Cc3ccc(N4CCC(F)(F)C4)nc3)n2)nc1C#N` [Example 366, N-[1-(6-Cyano-5-methyl-pyridin-2-ylmethyl)-1H-pyrazol-3-yl]-2-[6-(3,3-difluoro-pyrrolidin-1-yl)-pyridin-3-yl]-acetamide]: the IC50 was determined as 147 nM.

For `Cc1cc(CC(=O)Nc2ccn(Cc3ccc(C)c(C#N)n3)n2)ccc1OCC(F)(F)F` [Example 367, N-[1-(6-Cyano-5-methyl-pyridin-2-ylmethyl)-1H-pyrazol-3-yl]-2-[3-methyl-4-(2,2,2-trifluoro-ethoxy)-phenyl]-acetamide], the half-inhibitory concentration (IC50) was determined as 10 nM.

Regarding `Cc1ccc(Cn2ccc(NC(=O)Cc3ccc4c(c3)c(C)nn4C)n2)nc1C#N` [Example 368, N-[1-(6-Cyano-5-methyl-pyridin-2-ylmethyl)-1H-pyrazol-3-yl]-2-(1,3-dimethyl-1H-indazol-5-yl)-acetamide], the IC50 worked out at 301 nM.

`Cc1ccc(Cn2ccc(NC(=O)Cc3ccc4c(c3)c(C)cn4C)n2)nc1C#N` [Example 369, N-[1-(6-Cyano-5-methyl-pyridin-2-ylmethyl)-1H-pyrazol-3-yl]-2-(1,3-dimethyl-1H-indol-5-yl)-acetamide]: the half-inhibitory concentration (IC50) worked out at 64 nM.

With `CCn1ncc2cc(CC(=O)Nc3ccn(Cc4ccc(C)c(C#N)n4)n3)ccc21` [Example 370, N-[1-(6-Cyano-5-methyl-pyridin-2-ylmethyl)-1H-pyrazol-3-yl]-2-(1-ethyl-1H-indazol-5-yl)-acetamide], the half-inhibitory concentration (IC50) came out at 578 nM.

For the compound `Cc1ccc(Cn2ccc(NC(=O)Cc3ccc(C(C)(C)C)cc3)n2)nc1C#N` [Example 371, 2-(4-tert-Butyl-phenyl)-N-[1-(6-cyano-5-methyl-pyridin-2-ylmethyl)-1H-pyrazol-3-yl]-acetamide], the IC50 stood at 13 nM.

Turning to `Cc1ccc(Cn2ccc(NC(=O)Cc3ccc(C4(C(F)(F)F)CC4)cc3)n2)nc1C#N` [Example 372, N-[1-(6-Cyano-5-methyl-pyridin-2-ylmethyl)-1H-pyrazol-3-yl]-2-[4-(1-trifluoromethyl-cyclopropyl)-phenyl]-acetamide], the 50% inhibitory concentration (IC50) came out at 38 nM.

For `Cc1ccc(Cn2ccc(NC(=O)Cc3ccc(N4CCCC4)nc3)n2)nc1C#N` [Example 373, N-[1-(6-Cyano-5-methyl-pyridin-2-ylmethyl)-1H-pyrazol-3-yl]-2-(6-pyrrolidin-1-yl-pyridin-3-yl)-acetamide], the half-inhibitory concentration (IC50) came to 349 nM.

`Cc1ccc(Cn2ccc(NC(=O)Cc3ccc(OC4CC(F)(F)C4)cc3)n2)nc1C#N` [Example 374, N-[1-(6-Cyano-5-methyl-pyridin-2-ylmethyl)-1H-pyrazol-3-yl]-2-[4-(3,3-difluoro-cyclobutoxy)-phenyl]-acetamide]: the IC50 came to 107 nM.
